For data set [1], the target named is Voltage-gated inwardly rectifying potassium channel KCNH2 (Homo sapiens, UniProt Q12809).
Data set [2] deals with T1, C-C chemokine receptor type 2 (Homo sapiens, UniProt P41597). The data set can be described thus: Antagonist activity at human CCR2 receptor expressed in human THP-1 cells assessed as inhibition of MCP1-induced Ca2+ flux by FLIPR analysis. The data set is classed as functional, cell-based. In general terms: Calcium assays in cells follow changes in intracellular calcium, usually with a dye or a luminescent sensor.
T1 sequence (P41597 whole entry): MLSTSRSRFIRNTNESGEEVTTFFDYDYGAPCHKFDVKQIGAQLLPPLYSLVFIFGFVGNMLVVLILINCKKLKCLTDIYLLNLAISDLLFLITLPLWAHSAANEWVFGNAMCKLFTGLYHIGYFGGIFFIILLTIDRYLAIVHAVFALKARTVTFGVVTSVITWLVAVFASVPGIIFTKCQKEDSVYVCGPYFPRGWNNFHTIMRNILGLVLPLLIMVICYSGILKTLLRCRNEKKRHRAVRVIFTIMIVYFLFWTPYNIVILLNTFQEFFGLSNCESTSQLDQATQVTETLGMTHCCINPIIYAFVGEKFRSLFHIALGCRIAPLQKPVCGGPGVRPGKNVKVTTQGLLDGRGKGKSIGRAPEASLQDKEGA

In data set [3] the target is T1, C-C chemokine receptor type 2. Nature of the data set: Displacement of 125I-MCP1 from human CCR2 receptor expressed in human THP-1 cell membrane by SPA assay. The format is cell membranes.
Data set [4] can be described thus: Dissociation constant, pKa of the compound. The format is physicochemical.
Data set [5] can be described thus: Lipophilicity, log P of the compound at pH 7.4. Particulars: buffer. The data set is classed as physicochemical.
The nature of data set [6]: Lipophilicity, log D of the compound at pH 7.4. The format is physicochemical. Conditions: buffer.
Data set [7] in a line: Intrinsic clearance in human microsomes assessed per mg of protein. The data set is classed as ADME, Microsome.
The target in data set [8] is Cytochrome P450 3A4 (Homo sapiens, UniProt P08684). Nature of the data set: Inhibition of CYP3A4. The format is ADME.
Cytochrome P450 3A4, sequence (P08684 whole entry): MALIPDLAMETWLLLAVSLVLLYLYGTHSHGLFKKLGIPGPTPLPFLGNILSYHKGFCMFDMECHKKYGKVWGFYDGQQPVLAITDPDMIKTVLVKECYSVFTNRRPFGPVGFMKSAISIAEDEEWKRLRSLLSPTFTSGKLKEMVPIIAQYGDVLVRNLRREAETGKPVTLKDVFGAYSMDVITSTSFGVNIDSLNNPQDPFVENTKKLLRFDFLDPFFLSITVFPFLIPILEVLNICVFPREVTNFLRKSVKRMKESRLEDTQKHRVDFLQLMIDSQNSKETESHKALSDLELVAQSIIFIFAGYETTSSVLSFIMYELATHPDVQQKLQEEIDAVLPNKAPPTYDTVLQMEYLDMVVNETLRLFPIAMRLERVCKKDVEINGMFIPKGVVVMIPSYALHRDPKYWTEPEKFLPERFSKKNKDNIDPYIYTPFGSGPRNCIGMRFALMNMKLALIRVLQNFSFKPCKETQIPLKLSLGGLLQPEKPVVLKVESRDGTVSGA
The nature of data set [9]: Volume of distribution in rat. The format is ADME, organism-based. Particulars: in vivo.
Data set [10] concerns the target Cytochrome P450 2D6 (Homo sapiens, UniProt P10635). The data set can be described thus: Inhibition of CYP2D6. The format is ADME.
Data set [11] in a line: Clearance in iv dosed rat. Particulars: in vivo. The format is ADME, organism-based.
Data set [12] in a line: Fraction unbound in human plasma. The format is ADME, cell-free.
Data set [13] is described as follows: Fraction unbound in rat plasma. The data set is classed as ADME, cell-free.
The nature of data set [14]: Aqueous solubility at pH 7. 4. The format is physicochemical. Conditions: buffer.
Data set [15] is described as follows: Oral bioavailability in rat. The format is ADME, organism-based. Particulars: in vivo.
Data set [16] is described as follows: Intrinsic clearance in rat hepatocytes assessed per 10^6 cells. The format is ADME, cell-based, Hepatocyte. Conditions: read-out: CLH.
The nature of data set [17]: Half life in rat. The data set is classed as ADME, organism-based. Particulars: in vivo.
Data set [18] has as its target T1, C-C chemokine receptor type 2. Nature of the data set: Displacement of 125I-MCP1 from human CCR2 receptor expressed in human HEK cell membrane. The data set is classed as cell membranes, HEK293. In general terms: Loss of bound radioactivity is the signal in a displacement assay; it reports binding, not function.

Structures are written as SMILES. Converted amounts (≈) assume the structure as drawn. Bounds are passed on as bounds.

One may read the IC50 as the concentration at which inhibition is half-maximal. The term pKa denotes the negative logarithm of the acid dissociation constant. For orientation: logP means a log measure of how a compound divides between an organic and an aqueous phase. A higher logP goes with higher lipophilicity. What is called logD is the decadic logarithm of the distribution of all forms, ionised or not, between an organic phase and buffer at a given pH. Low values mean a more hydrophilic compound, high ones a more lipophilic compound. What is called microsomal CLint is the capacity of the preparation to metabolise the compound, expressed as a volume cleared per time. A low value points to greater metabolic stability. For orientation: Vd means the apparent volume that relates the amount in the body to the concentration in plasma or blood. Broadly, the clearance is the rate of elimination divided by the concentration. The term fraction unbound denotes the share of the substance not bound to proteins or other matrix. A low value points to extensive binding. What is called solubility is the dissolved amount per volume that the medium holds. Low readings indicate a poorly soluble substance, high ones a readily soluble substance. The term bioavailability denotes the share of a dose that reaches the circulation, judged against a reference dose that is usually intravenous. In general, half-life refers to the time needed for the level to fall by half in the phase considered. Low values mean fast loss, high ones slow loss. As a reminder, the Ki is the dissociation constant of the complex between target and ligand, obtained from inhibition or displacement. High values mean a looser hold on the target, low ones a stronger hold on the target.

Voltage-gated inwardly rectifying potassium channel KCNH2, sequence (Q12809 whole entry): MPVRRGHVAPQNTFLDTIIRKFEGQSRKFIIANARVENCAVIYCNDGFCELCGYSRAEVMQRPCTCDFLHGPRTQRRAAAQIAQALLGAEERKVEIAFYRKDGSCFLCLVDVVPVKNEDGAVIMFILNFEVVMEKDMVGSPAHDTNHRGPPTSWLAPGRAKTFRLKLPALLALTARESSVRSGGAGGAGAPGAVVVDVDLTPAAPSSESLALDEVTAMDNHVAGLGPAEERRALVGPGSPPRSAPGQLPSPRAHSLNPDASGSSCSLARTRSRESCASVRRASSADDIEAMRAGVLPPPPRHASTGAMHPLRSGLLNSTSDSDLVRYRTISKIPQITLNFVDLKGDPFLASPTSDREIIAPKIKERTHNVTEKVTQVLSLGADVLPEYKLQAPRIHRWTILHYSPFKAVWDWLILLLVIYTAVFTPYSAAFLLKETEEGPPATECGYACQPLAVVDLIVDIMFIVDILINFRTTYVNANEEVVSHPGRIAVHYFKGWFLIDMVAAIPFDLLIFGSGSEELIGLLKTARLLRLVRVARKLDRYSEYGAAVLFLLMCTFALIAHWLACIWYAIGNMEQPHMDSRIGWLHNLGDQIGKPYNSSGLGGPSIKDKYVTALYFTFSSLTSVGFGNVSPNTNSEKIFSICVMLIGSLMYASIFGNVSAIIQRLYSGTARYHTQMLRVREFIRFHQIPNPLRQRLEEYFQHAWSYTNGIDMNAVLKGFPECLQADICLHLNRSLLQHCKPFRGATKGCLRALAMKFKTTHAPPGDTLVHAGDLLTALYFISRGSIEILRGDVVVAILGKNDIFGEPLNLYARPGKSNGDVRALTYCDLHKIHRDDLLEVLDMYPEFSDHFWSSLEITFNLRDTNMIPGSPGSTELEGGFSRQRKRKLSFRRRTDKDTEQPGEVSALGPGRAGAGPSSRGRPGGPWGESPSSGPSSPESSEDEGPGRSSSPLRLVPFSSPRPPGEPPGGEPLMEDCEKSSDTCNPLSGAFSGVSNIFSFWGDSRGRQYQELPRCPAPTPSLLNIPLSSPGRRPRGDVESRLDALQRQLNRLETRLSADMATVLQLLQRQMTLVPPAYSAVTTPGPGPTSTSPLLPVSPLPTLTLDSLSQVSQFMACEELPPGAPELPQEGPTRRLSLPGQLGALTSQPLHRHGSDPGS
Cytochrome P450 2D6, sequence (P10635 whole entry): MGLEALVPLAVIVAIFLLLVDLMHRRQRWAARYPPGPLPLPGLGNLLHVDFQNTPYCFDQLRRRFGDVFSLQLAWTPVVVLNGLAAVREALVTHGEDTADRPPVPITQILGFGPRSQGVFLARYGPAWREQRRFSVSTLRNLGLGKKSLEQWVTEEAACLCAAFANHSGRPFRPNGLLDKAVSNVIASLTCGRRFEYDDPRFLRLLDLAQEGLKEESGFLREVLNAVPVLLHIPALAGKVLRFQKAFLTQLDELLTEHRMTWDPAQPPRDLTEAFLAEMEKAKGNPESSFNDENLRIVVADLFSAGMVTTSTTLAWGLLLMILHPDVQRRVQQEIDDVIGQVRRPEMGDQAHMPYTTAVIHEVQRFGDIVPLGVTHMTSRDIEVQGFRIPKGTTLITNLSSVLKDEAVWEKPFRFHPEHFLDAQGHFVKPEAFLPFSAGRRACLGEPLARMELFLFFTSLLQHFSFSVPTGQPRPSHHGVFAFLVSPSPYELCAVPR

For the compound `O=C(Nc1ccc(Cl)c(Cl)c1)N1CCN(C[C@@H]2CCCN(CCCc3ccccc3)C2)CC1`, the IC50 in data set [1] was 400 nM; in data set [2], 280 nM; in data set [3], 64 nM.
On to `CCN1CCN[C@@H](C(=O)N2CCN(C(=O)Nc3ccc(Cl)c(Cl)c3)CC2)C1`, for which the IC50 amounted to 55 nM in data set [2] and 21 nM in data set [3].
`COc1ccc(NC(=O)N2CCN(C[C@@H]3CCCN(C4CC4)C3)CC2)cc1` had an IC50 in [3] of 1460 nM.
The same measure, in the same setting: to `O=C(Nc1ccccc1Cl)N1CCN(C[C@@H]2CCCN(C3CC3)C2)CC1` belongs > 10000 nM; to `CCN1CCC[C@H](CN2CCN(C(=O)Nc3ccc(Cl)c(Cl)c3)CC2)C1`, 1180 nM.
`O=C(Nc1ccc(C(F)(F)F)c(Cl)c1)N1CCN(C[C@@H]2CCCN(C3CC3)C2)CC1`: the values for the IC50 in data set [2] and in data set [3] were 31 nM and 17 nM, respectively.
On to `O=C(Nc1ccc(Br)cc1)N1CCN(C[C@@H]2CCCN(C3CC3)C2)CC1`, for which the figures for the half-maximal inhibitory concentration (IC50) in data set [1], in data set [2] and in [3] were 7100 nM, 162 nM and 58 nM, respectively.
On to `CCN1CCNC(CN2CCN(C(=O)Nc3ccc(Cl)c(Cl)c3)CC2)C1` (racemic), for which the half-maximal inhibitory concentration (IC50) was found to be 8900 nM in [1] and 797 nM in data set [3].
Turning to `CCN1CCC[C@@H](CN2CCN(C(=O)Nc3ccc(Cl)c(Cl)c3)CC2)C1`, the IC50 in data set [1] amounted to 2100 nM; in [2], 174 nM; in [3] it was 37 nM.
With `CN1CCN[C@@H](C(=O)N2CCN(C(=O)Nc3ccc(Cl)c(Cl)c3)CC2)C1`, the IC50 turned out to be 20000 nM in data set [1], 362 nM in data set [2] and 69 nM in data set [3].
For the compound `N#Cc1cccc(NC(=O)N2CCN(C[C@@H]3CCCN(C4CC4)C3)CC2)c1`, the results for the IC50 in data set [2] and in data set [3] were 5870 nM and 1050 nM, respectively.
As for `O=C(Nc1cccc(C(F)(F)F)c1)N1CCN(C[C@@H]2CCCN(C3CC3)C2)CC1`, the values for the half-inhibitory concentration (IC50) in data set [1], in data set [2] and in [3] were 13000 nM, 578 nM and 98 nM, respectively.
`CC(C)N1CCC[C@@H](CN2CCN(C(=O)Nc3ccc(Cl)c(Cl)c3)CC2)C1`: in [4], the pKa worked out at 10. Moreover, the concentration for half-maximal inhibition (IC50) came to 1300 nM in [1], 58 nM in data set [2] and 16 nM in data set [3]. This compound yielded a logP in data set [5] of 4.2. The log distribution coefficient (logD) in [6] was found to be 1.62.
`O=C(Nc1cccc(Cl)c1)N1CCN(C[C@@H]2CCCN(C3CC3)C2)CC1`: the half-maximal inhibitory concentration (IC50) is 202 nM in data set [2] and 171 nM in [3].
For the compound `CCN1CCO[C@@H](CN2CCN(C(=O)Nc3ccc(Cl)c(Cl)c3)CC2)C1`, the IC50 turned out to be 7900 nM in [1], 277 nM in [2] and 64 nM in [3].
On to `CN1CCN(C)C(C(=O)N2CCN(C(=O)Nc3ccc(Cl)c(Cl)c3)CC2)C1` (racemic), for which the IC50 in [1] is 13000 nM; in [3] it was 5500 nM.
For the compound `O=C(Nc1ccc(Cl)cc1)N1CCN(C[C@@H]2CCCN(C3CC3)C2)CC1`, the IC50 was 14000 nM in data set [1], 220 nM in data set [2] and 127 nM in [3].
The compound `O=C(Nc1ccc(Cl)c(Cl)c1)N1CCN(C[C@@H]2CCCN(C3CC3)C2)CC1` showed an intrinsic clearance (microsomal CLint) in data set [7] of 5 µL/min/mg. For the same compound, the IC50 in data set [8] came out at 1600 nM; in data set [10], 3100 nM; in data set [2] it was 64 nM; in data set [3], 10 nM. In addition, in [9], the Vd was 8 L/kg. Moreover, the clearance in data set [11] was determined as 24 mL/min/kg. The unbound share (fraction unbound) in data set [12] and in data set [13] was 0.05 in each case. The compound also returned a solubility in data set [14] of 290 µM (≈ 119 µg/mL). This compound also came in with a bioavailability in [15] of 11%. In addition, the hepatocyte CLint in data set [16] amounted to 11 µL/min/1e6 cells. Further, in data set [17], the half-life was 5 h.
Consider `O=C(Nc1ccc(Cl)c(C(F)(F)F)c1)N1CCN(C[C@@H]2CCCN(C3CC3)C2)CC1`, for which the IC50 in data set [1] came to 6300 nM; in [2], 421 nM; in data set [3] it was 35 nM.
Take `CCN1CCOC(C(=O)N2CCN(C(=O)Nc3ccc(Cl)c(Cl)c3)CC2)C1` (racemic): the IC50 in [1] is 5000 nM; in data set [2], > 1000 nM; in [3] it was 2570 nM.
Compound `CN1CCCC(CN2CCN(C(=O)Nc3ccc(Cl)c(Cl)c3)CC2)C1` (stereo unspecified) showed a Ki in [18] of 400 nM. The values for the IC50 in data set [1], in data set [2] and in [3] were 1600 nM, 965 nM and 170 nM, respectively.
As to `CCN1CCC[C@@H](C(=O)N2CCN(C(=O)Nc3ccc(Cl)c(Cl)c3)CC2)C1`, the IC50 was found to be 588 nM in data set [2] and 856 nM in data set [3].
Regarding `O=C(Nc1ccc(Cl)c(Cl)c1)N1CCN(CC2CCCNC2)CC1` (racemic), the IC50 stood at 950 nM in data set [2] and 780 nM in data set [3].
In the case of `CC(C)N1CCO[C@@H](CN2CCN(C(=O)Nc3ccc(Cl)c(Cl)c3)CC2)C1`, the results for the IC50 in [1], in [2] and in [3] were 6300 nM, 42 nM and 17 nM, respectively.
As to `N#Cc1ccc(NC(=O)N2CCN(C[C@@H]3CCCN(C4CC4)C3)CC2)cc1`, the IC50 was 4360 nM in data set [2] and 449 nM in data set [3].
Consider `CCN1CCCC(CN2CCN(C(=O)Nc3ccc(Cl)c(Cl)c3)CC2)C1` (racemic), for which the values for the IC50 in [1], in [2] and in data set [3] were 4300 nM, 627 nM and 123 nM, respectively.
Regarding `O=C(Nc1ccc(Cl)c(Cl)c1)N1CCN(C(=O)[C@H]2CN(C3CC3)CCN2)CC1`, the IC50 in data set [1] was 19000 nM; in data set [2] it was 38 nM; in data set [3], 32 nM.
In the case of `O=C(Nc1ccc(Cl)c(Cl)c1)N1CCN(C[C@H]2CN(C3CC3)CCO2)CC1`, the IC50 in [2] was found to be 262 nM; in [3], 267 nM.
As to `O=C(Nc1ccc(F)c(Cl)c1)N1CCN(C[C@@H]2CCCN(C3CC3)C2)CC1`, the 50% inhibitory concentration (IC50) in data set [1] came out at 14000 nM; in data set [2], 75 nM; in data set [3], 50 nM.
With `O=C(Nc1ccc(C(F)(F)F)cc1)N1CCN(C[C@@H]2CCCN(C3CC3)C2)CC1`, the IC50 in data set [2] was determined as 593 nM; in [3] it was 68 nM.
Consider `CS(=O)(=O)c1cccc(NC(=O)N2CCN(C[C@@H]3CCCN(C4CC4)C3)CC2)c1`, for which the IC50 in data set [3] is > 10000 nM.
`CC(C)N1CCN[C@@H](CN2CCN(C(=O)Nc3ccc(Cl)c(Cl)c3)CC2)C1`: the IC50 in data set [2] came out at 32 nM; in data set [3], 26 nM.
Take `O=C(Nc1ccc(Cl)c(Cl)c1)N1CCN(C[C@@H]2CCCN(CC3CC3)C2)CC1`: the IC50 in data set [2] turned out to be 161 nM; in [3], 52 nM.
As for `O=C(Nc1ccccc1)N1CCN(C[C@@H]2CCCN(C3CC3)C2)CC1`, the IC50 in data set [2] is > 3000 nM; in data set [3], 710 nM.
The matching figures for `O=C(Nc1ccc(Cl)c(Cl)c1)N1CCN(C[C@@H]2CCCN(Cc3ccccc3)C2)CC1`: 244 nM and 99 nM.
In the case of `Cc1ccc(NC(=O)N2CCN(C[C@@H]3CCCN(C4CC4)C3)CC2)cc1Cl`, the IC50 in data set [1] was 7100 nM; in [2], 184 nM; in data set [3], 27 nM.
In the case of `O=C(Nc1ccc(Cl)c(Cl)c1)N1CCN(C[C@@H]2CCCN(CCc3ccccc3)C2)CC1`, the half-inhibitory concentration (IC50) in data set [2] stood at 42 nM; in data set [3] it was 5 nM.

For the origin of these results see ChEMBL document CHEMBL2034889, “The design and synthesis of novel, potent and orally bioavailable N-aryl piperazine-1-carboxamide CCR2 antagonists with very high hERG selectivity” (Bioorg Med Chem Lett, 2012).
